Laboratory results: BindingDB's records for doi:10.1021/jm980254j (Georgetown University Medical Center, 1998)

Target: phosphoinositide-specific phospholipase C (Bos taurus)
Experiment: In vitro inhibitory activity against bovine Phosphoinositide specific phospholipase C (PI-PLC)

In the case of `CCCCCCCCCCCCCCCC(=O)OC[C@H](COP(=O)(O)OC1C(O)C(O)C(O)C(F)C1O)OC(=O)CCCCCCCCCCCCCCC` (stereo partly drawn) [Hexadecanoic acid (R)-2-[(3-fluoro-2,4,5,6-tetrahydroxy-cyclohexyloxy)-hydroxy-phosphoryloxy]-1-hexadecanoyloxymethyl-ethyl ester], the IC50 is reported as 8 µM.
